Patent US20240287138A1, “CYCLIC PEPTIDES FOR INHIBITING TNF RECEPTOR 1 ACTIVITY” (Merck Sharp & Dohme LLC, priority 2023, published 2024)
pIC50, pKd: −log10 of the molar value. Numbered stars: 1 amine (or outer) side, 2 acyl side, 3 side chain; on linkers, the order of the positions; unused ones are H or OH. Bridge positions count the residues as written; N and C are the ends. Square brackets hold non-standard residues; d marks the D form. Peptide text beside a SMILES is read from it. Trp(βS-Me,7-OMe) = COc1cccc2c([C@H](C)[C@H](N)C(=O)O)c[nH]c12; Ala(1-bicyclo(1.1.1)pentyl) = N[C@@H](CC12CC(C1)C2)C(=O)O; Phe(3-CH2NH2) = O=C([C@H](Cc1cccc(CN[*:3])c1)N[*:1])[*:2]; Trp(βS-Me) = C[C@@H](c1c[nH]c2ccccc12)[C@H](N)C(=O)O; Trp(4-Cl) = N[C@@H](Cc1c[nH]c2cccc(Cl)c12)C(=O)O; Trp(7-Cl) = N[C@@H](Cc1c[nH]c2c(Cl)cccc12)C(=O)O; Phe(4-CONH2) = NC(=O)c1ccc(C[C@H](N)C(=O)O)cc1; Phe(4-COOH) = N[C@@H](Cc1ccc(C(=O)O)cc1)C(=O)O; Trp(7-aza) = N[C@@H](Cc1c[nH]c2ncccc12)C(=O)O; Phe(4-CH2NH2) = NCc1ccc(C[C@H](N)C(=O)O)cc1; dPro(cis-4-NH2) = N[C@H]1CN[C@@H](C(=O)O)C1; N(CH2CH2COOH)Gly = O=C(O)CCNCC(=O)O; Pip(4-aza) = O=C(O)[C@@H]1CNCCN1; 4Pal = N[C@@H](Cc1ccncc1)C(=O)O; NMeE = CN[C@@H](CCC(=O)O)C(=O)O; Cit = NC(=O)NCCC[C@H](N)C(=O)O; NMeN = CN[C@@H](CC(N)=O)C(=O)O; Pip = O=C(O)[C@@H]1CCCCN1; αMeS = C[C@](N)(CO)C(=O)O; Nle = CCCC[C@H](N)C(=O)O; Sar = CNCC(=O)O

How the values were obtained:
[1] = molecular target: T1, human TNFR1 extracellular domain (ECD) protein (Homo sapiens, UniProt P19438); assay: SPR binding affinity to captured human TNFR1 ECD
T1 construct: HRV 3C protease cleavage site (C); 6His (C, cleaved yes); made in house; host or cells: Sf21 insect cells (baculovirus), secreted
T1 sequence (P19438 30-211): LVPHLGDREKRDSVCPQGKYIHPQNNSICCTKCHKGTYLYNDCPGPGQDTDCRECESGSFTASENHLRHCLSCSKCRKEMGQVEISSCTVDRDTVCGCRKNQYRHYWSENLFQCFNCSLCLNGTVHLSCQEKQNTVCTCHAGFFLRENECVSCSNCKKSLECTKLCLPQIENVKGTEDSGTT
Procedure, shortened: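 Peptides are tested against captured biotin-tagged human TNFR1 ECD, with parallel TNFR2 ECD binding to check selectivity. Buffer: 10 mM HEPES pH 7.4, 150 mM NaCl, 3 mM EDTA, 0.05% P20, 2% DMSO.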

[2] = molecular target: T2, human soluble TNFR1 (sTNFR1) (Homo sapiens, UniProt P19438); assay: Human sTNFR1-peptide displacement assay (LanthaScreen Eu TR-FRET binding assay)
T2 construct: made in house; host or cells: Sf21 (baculovirus)
T2 sequence (P19438 with tags, fused parts or gaps): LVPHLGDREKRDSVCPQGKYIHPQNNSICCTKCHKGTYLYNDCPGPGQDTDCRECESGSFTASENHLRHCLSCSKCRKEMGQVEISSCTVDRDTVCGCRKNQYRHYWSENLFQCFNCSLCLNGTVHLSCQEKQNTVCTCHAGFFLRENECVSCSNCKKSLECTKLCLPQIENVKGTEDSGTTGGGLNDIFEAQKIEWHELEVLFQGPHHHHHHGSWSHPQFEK
Procedure, shortened: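 Readout is the 665/615 nm TR-FRET ratio (Eu anti-His donor, streptavidin-Alexa647 acceptor), normalized to DMSO and saturating displacer, fit by Morrison-based five-parameter logistic for Kd^app. His-tagged sTNFR1 (1-211) prebound to 100 nM biotinylated peptide SEQ ID NO.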

Row | SMILES | pKd [1] | pIC50 [2] | pKd [2]
1 | C[C@@H](c1c[nH]c2ccccc12)[C@@H]1NC(=O)CN(C)C(=O)[C@H](Cc2c[nH]cn2)NC(=O)[C@H](Cc2ccc(C(=O)O)cc2)NC(=O)[C@](C)(CO)NC(=O)[C@H](Cc2c[nH]c3c(Cl)cccc23)NC(=O)[C@H](Cc2ccc(C(=O)O)cc2)NC(=O)[C@H](CC(N)=O)NC(=O)[C@H]2CCCN2C(=O)[C@H]([C@@H](C)c2c[nH]c3ccccc23)NC(=O)[C@H](CO)NC(=O)[C@H](Cc2ccc(CN)cc2)NC(=O)[C@H](CCCNC(N)=O)NC(=O)CSC[C@@H](C(N)=O)NC1=O [SEQ ID NO. 215] ({CH2CO}-[Cit][Phe(4-CH2NH2)]S[Trp(βS-Me)][dP]N[Phe(4-COOH)][Trp(7-Cl)][αMeS][Phe(4-COOH)]H[Sar][Trp(βS-Me)]C-NH2; thioether N-14) | 8.74 | 8.55 | 
2 | CCCC[C@@H]1NC(=O)CSC[C@@H](C(N)=O)NC(=O)[C@H]([C@@H](C)c2c[nH]c3c(OC)cccc23)NC(=O)CN(C)C(=O)[C@H](Cc2ccc(O)cc2)NC(=O)[C@H](Cc2ccc(C(=O)O)cc2)NC(=O)[C@](C)(CO)NC(=O)[C@H](Cc2c[nH]c3c(Cl)cccc23)NC(=O)[C@H](Cc2ccc(OC)cc2)NC(=O)[C@H](CC(N)=O)NC(=O)[C@H](CCC(=O)O)N(C)C(=O)[C@H](Cc2c[nH]c3ccccc23)NC(=O)[C@@H]2CNCCN2C(=O)[C@H](Cc2ccncc2)NC1=O [SEQ ID NO. 218] ({CH2CO}-[Nle][4Pal][Pip(4-aza)]W[NMeE]NY(Me)[Trp(7-Cl)][αMeS][Phe(4-COOH)]Y[Sar][Trp(βS-Me,7-OMe)]C-NH2; thioether N-14) | 9.30 | 8.94 | 
3 | CCCC[C@@H]1NC(=O)CSC[C@@H](C(N)=O)NC(=O)[C@H]([C@@H](C)c2c[nH]c3c(OC)cccc23)NC(=O)CN(C)C(=O)[C@H](Cc2ccc(O)cc2)NC(=O)[C@H](Cc2ccc(C(N)=O)cc2)NC(=O)[C@](C)(CO)NC(=O)[C@H](Cc2c[nH]c3c(Cl)cccc23)NC(=O)[C@H](Cc2ccncc2)NC(=O)[C@H](CC(N)=O)NC(=O)[C@H]2C[C@@H](N)CN2C(=O)[C@H](Cc2c[nH]c3ncccc23)NC(=O)[C@@H]2CNCCN2C(=O)[C@H](Cc2ccncc2)NC1=O [SEQ ID NO. 219] ({CH2CO}-[Nle][4Pal][Pip(4-aza)][Trp(7-aza)][dPro(cis-4-NH2)]N[4Pal][Trp(7-Cl)][αMeS][Phe(4-CONH2)]Y[Sar][Trp(βS-Me,7-OMe)]C-NH2; thioether N-14) | 10.00 | 9.52 | 9.82
4 | CCCC[C@@H]1NC(=O)CSC[C@@H](C(N)=O)NC(=O)[C@H]([C@@H](C)c2c[nH]c3c(OC)cccc23)NC(=O)CN(C)C(=O)[C@H](Cc2ccc(O)cc2)NC(=O)[C@H](Cc2ccc(C(=O)O)cc2)NC(=O)[C@](C)(CO)NC(=O)[C@H](Cc2c[nH]c3c(Cl)cccc23)NC(=O)[C@H](Cc2ccncc2)NC(=O)[C@H](CC(N)=O)NC(=O)CN(CCC(=O)O)C(=O)[C@H](Cc2c[nH]c3ncccc23)NC(=O)[C@@H]2CCCCN2C(=O)[C@H](Cc2ccncc2)NC1=O [SEQ ID NO. 220] ({CH2CO}-[Nle][4Pal][Pip][Trp(7-aza)][N(CH2CH2COOH)Gly]N[4Pal][Trp(7-Cl)][αMeS][Phe(4-COOH)]Y[Sar][Trp(βS-Me,7-OMe)]C-NH2; thioether N-14) | 9.60 |  | 9.26
5 | CN1CC(=O)N[C@@H](Cc2c[nH]c3cccc(Cl)c23)C(=O)N[C@H](C(N)=O)CSCC(=O)N[C@@H](CC23CC(C2)C3)C(=O)N[C@@H](Cc2cccc(CN)c2)C(=O)N[C@@H](CO)C(=O)N[C@@H](Cc2c[nH]c3c(Cl)cccc23)C(=O)N2CCC[C@@H]2C(=O)N(C)[C@@H](CC(N)=O)C(=O)N[C@@H](Cc2ccc(C(=O)O)cc2)C(=O)N[C@@H](Cc2c[nH]c3c(Cl)cccc23)C(=O)N[C@@](C)(CO)C(=O)N[C@@H](Cc2ccc(C(=O)O)cc2)C(=O)N[C@@H](Cc2cccc(CN)c2)C1=O [SEQ ID NO. 222] ({CH2CO}-[Ala(1-bicyclo(1.1.1)pentyl)][Phe(3-CH2NH2)]S[Trp(7-Cl)][dP][NMeN][Phe(4-COOH)][Trp(7-Cl)][αMeS][Phe(4-COOH)][Phe(3-CH2NH2)][Sar][Trp(4-Cl)]C-NH2; thioether N-14) | 9.74 | 8.76 | 
